Source: patent US20030166706A1, “Method of treating osteoarthritis” (priority 2002, published 2003)
Entries after “also recorded” stand apart in the source; their conditions may differ. Marks after values point to notes of the source that are not given here.

Key:
[1] = cited from earlier work
[2] = system: Monosodium Iodoacetate-induced Osteoarthritis in Rat; assay: Monosodium iodoacetate-induced osteoarthritis in rat model of cartilage damage (MIA Rat); type: in vivo, male Wistar rats
[3] = 4 weeks study, subcutaneously via osmotic pumps, 10 mg/kg/day
[4] = 4 weeks study, subcutaneously via osmotic pumps, 30 mg/kg/day
[5] = 4 weeks study, subcutaneously via osmotic pumps, 100 mg/kg/day

Cc1onc(-c2ccccc2)c1-c1ccc(S(N)(=O)=O)cc1 [valdecoxib, 4-(5-methyl-3-phenyl-4-isoxazolyl)-benzenesulfonamide]
tolerability ([1]; combined analysis of various clinical studies): well tolerated | overall upper gastrointestinal safety profile (ulcers, perforations, obstructions and GI bleeds) ([1]; versus conventional NSAIDs studied such as ibuprofen, diclofenac and naproxen): significantly better

O=C(O)[C@@H]1C[C@@H]2CCCC[C@@H]2N1 [[2(S), 3a(S), 7a(S)]-2,3,3a,4,5,6,7,7a-octahydroindol-2-carboxylic acid]
degree of structural damage to the cartilage ([2]; 10 mg/kg PO, BID, 4 weeks post-MIA): significantly decreased | degree of structural damage to the cartilage ([2]; 30 mg/kg PO, BID, 4 weeks post-MIA): significantly decreased | IJFL (Inhibition of Joint Function Limitation) (% +/− SEM) ([2]; 2 weeks study, subcutaneously via osmotic pumps, 90 mg/kg/day, p < 0.05 versus vehicle): 85 +/− 3% | SDCES (Significant Decrease In Cartilage Erosion Severity) [2, 3]: No | SIJWHLE (Significant Increase in Joints Without Hind Limb Erosion) [2, 3]: No | IJFL (Inhibition of Joint Function Limitation) (% +/− SEM) ([2]; 4 weeks study, subcutaneously via osmotic pumps, 10 mg/kg/day, Not statistically significant): 28 +/− 14^e % | SDCES (Significant Decrease In Cartilage Erosion Severity) [2, 4]: No | SIJWHLE (Significant Increase in Joints Without Hind Limb Erosion) [2, 4]: No | IJFL (Inhibition of Joint Function Limitation) (% +/− SEM) ([2]; 4 weeks study, subcutaneously via osmotic pumps, 30 mg/kg/day, p < 0.05 versus vehicle): 94 +/− 10% | SDCES (Significant Decrease In Cartilage Erosion Severity) [2, 5]: No | SIJWHLE (Significant Increase in Joints Without Hind Limb Erosion) [2, 5]: No | IJFL (Inhibition of Joint Function Limitation) (% +/− SEM) ([2]; 4 weeks study, subcutaneously via osmotic pumps, 100 mg/kg/day, p < 0.05 versus vehicle): 78 +/− 3% | inhibiting cartilage damage and treating osteoarthritis, from analysis of proteoglycan loss ([2]; MIA Rat data that are expected): effective | joint pain ([2]; all doses, 3 to 30 mg/kg PO, BID, 4 weeks post-MIA): significantly decreased joint pain | preventing or treating cartilage damage ([2]; conclusion from MIA Rat data of Tables 1 and 2): effective | joint function limitations as defined by a reduction in differential hind-limb weight bearing ([2]; dosed orally two times per day): decrease joint function limitations | SIJWHLE (Significant Increase in Joints Without Hind Limb Erosion) ([2]; four week study, oral, two times per day, 3 mg/kg per dose, Cochran-Armitage Trend test): No | SDCES (Significant Decrease In Cartilage Erosion Severity) ([2]; four week study, oral, two times per day, 3 mg/kg per dose, Ridit Analysis): No | IJFL (Inhibition of Joint Function Limitation) (% +/− SEM) ([2]; four week study, oral, two times per day, 3 mg/kg per dose, p < 0.05 versus vehicle): 62 +/− 6% | SIJWHLE (Significant Increase in Joints Without Hind Limb Erosion) ([2]; four week study, oral, two times per day, 10 mg/kg per dose, Cochran-Armitage Trend test, actual p = 0.046): Yes^f | SDCES (Significant Decrease In Cartilage Erosion Severity) ([2]; four week study, oral, two times per day, 10 mg/kg per dose, Ridit Analysis, 10 mg/kg): significantly decrease cartilage erosion severity and No | IJFL (Inhibition of Joint Function Limitation) (% +/− SEM) ([2]; four week study, oral, two times per day, 10 mg/kg per dose, p < 0.05 versus vehicle): 70 +/− 9% | SIJWHLE (Significant Increase in Joints Without Hind Limb Erosion) ([2]; four week study, oral, two times per day, 30 mg/kg per dose, Cochran-Armitage Trend test, actual p = 0.020): Yes^e | IJFL (Inhibition of Joint Function Limitation) (% +/− SEM) ([2]; four week study, oral, two times per day, 30 mg/kg per dose, p < 0.05 versus vehicle): 83 +/− 7% | SDCES (Significant Decrease In Cartilage Erosion Severity) ([2]; four week study, oral, two times per day, 30 mg/kg per dose, p < 0.05 versus vehicle (Ridit Analysis), actual p = 0.021, 30 mg/kg): significantly decrease cartilage erosion severity; also recorded: Yes^d
